As a reminder, the EC50 is the concentration needed to bring the measured effect to its halfway point.

SMILES strings stand for the structures.

In the experiment the target is human mGlu4 receptor (Homo sapiens (Human), UniProt Q14833). The experiment is described as follows: Ca2+ mobilization in vitro assay on recombinant human mGlu4 expressed in HEK293 cells (PAM). The class given is cell-based. Particulars: for Emax: HEK293, maximal response in % of maximal stimulatory effect of saturating L-AP4, read-out: Eff. (%); for EC50: HEK293 cells, human mGlu4, in presence of EC20 of L-AP4, read-out: EC50 (nM) mGlu4PAM. An excerpt: FIG. 1: Illustrates the experimental outline for mGlu4 PAM Ca^2+ mobilization screening assay and the determination of EC50 and % Emax values. […] A depression of the signal observed after addition of the EC20 concentration of L-AP4 was indicative of an inhibitory activity of the test compound.
Determination of EC50 Values Using a Ca2+ Mobilization In Vitro Assay on Recombinant Human mGlu4 Expressed in HEK293 Cells:
A monoclonal HEK-293 cell line stably transfected with a cDNA encoding for the human mGlu4 receptor was generated; for the work with mGlu4 Positive Allosteric Modulators (PAMs), a cell line with low receptor expression levels and low constitutive receptor activity was selected to allow the differentiation of agonistic versus PAM activity. Cells were cultured according to standard protocols (Freshney, 2000) in Dulbecco's Modified Eagle Medium with high glucose supplemented with 1 mM glutamine, 10% (vol/vol) heat-inactivated bovine calf serum, Penicillin/Streptomycin, 50 μg/ml hygromycin and 15 μg/ml blasticidin (all cell culture reagents and antibiotics from Invitrogen, Basel, Switzerland).
About 24 hrs before an experiment, 5×10^4 cells/well were seeded in poly-D-lysine coated, black/clear-bottomed 96-well plates. The cells were loaded with 2.5 μM Fluo-4AM in loading buffer (1×HBSS, 20 mM HEPES) for 1 hr at 37° C. and washed five times with loading buffer. The cells were transferred into a Functional Drug Screening System 7000 (Hamamatsu, Paris, France), and 11 half logarithmic serial dilutions of test compound at 37° C. were added and the cells were incubated for 10-30 min. with on-line recording of fluorescence. Following this pre-incubation step, the agonist (2S)-2-amino-4-phosphonobutanoic acid (L-AP4) was added to the cells at a concentration corresponding to EC20 with on-line recording of fluorescence; in order to account for day-to-day variations in the responsiveness of cells, the EC20 of L-AP4 was determined immediately ahead of each experiment by recording of a full dose-response curve of L-AP4.
Responses were measured as peak increase in fluorescence minus basal (i.e. fluorescence without addition of L-AP4), normalized to the maximal stimulatory effect obtained with saturating concentrations of L-AP4. Graphs were plotted with the % maximal stimulatory using XLfit, a curve fitting program that iteratively plots the data using Levenburg Marquardt algorithm. The single site competition analysis equation used was y=A+((B−A)/(1+((x/C)D))), where y is the % maximal stimulatory effect, A is the minimum y, B is the maximum y, C is the EC50, x is the log 10 of the concentration of the competing compound and D is the slope of the curve (the Hill Coefficient). From these curves the EC50 (drug concentration at which 50% of the maximal receptor activation was achieved), the Hill coefficient as well as the maximal response in % of the maximal stimulatory effect obtained with saturating concentrations of L-AP4 were calculated (see FIG. 1).
For orientation: Calcium flux is commonly read through the fluorescence of an indicator in the cells.

Chain of human mGlu4 receptor (Q14833 33-912): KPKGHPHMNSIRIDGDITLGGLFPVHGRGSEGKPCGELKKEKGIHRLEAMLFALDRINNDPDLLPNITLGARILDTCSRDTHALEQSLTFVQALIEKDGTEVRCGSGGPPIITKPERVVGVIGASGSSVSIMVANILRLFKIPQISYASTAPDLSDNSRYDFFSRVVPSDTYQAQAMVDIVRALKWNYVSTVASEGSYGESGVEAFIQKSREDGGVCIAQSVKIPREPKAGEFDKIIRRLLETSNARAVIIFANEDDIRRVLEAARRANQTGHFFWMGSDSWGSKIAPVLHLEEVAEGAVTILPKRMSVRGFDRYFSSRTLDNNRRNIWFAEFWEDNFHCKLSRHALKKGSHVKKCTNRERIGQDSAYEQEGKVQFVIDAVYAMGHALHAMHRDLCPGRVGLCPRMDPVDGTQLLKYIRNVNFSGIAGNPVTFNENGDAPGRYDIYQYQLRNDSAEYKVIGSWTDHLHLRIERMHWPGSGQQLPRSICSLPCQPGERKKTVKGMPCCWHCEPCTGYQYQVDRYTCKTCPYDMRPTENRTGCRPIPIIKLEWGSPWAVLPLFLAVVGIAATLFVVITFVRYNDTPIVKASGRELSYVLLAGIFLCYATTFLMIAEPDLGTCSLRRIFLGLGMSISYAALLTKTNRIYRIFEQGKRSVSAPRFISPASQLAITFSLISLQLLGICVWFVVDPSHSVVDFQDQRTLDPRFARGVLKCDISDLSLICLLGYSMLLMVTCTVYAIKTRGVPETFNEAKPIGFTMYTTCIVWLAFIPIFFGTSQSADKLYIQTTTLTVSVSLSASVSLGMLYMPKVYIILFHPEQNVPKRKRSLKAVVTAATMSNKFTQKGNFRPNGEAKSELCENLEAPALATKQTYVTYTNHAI

On to `CC12CC(=O)N(c3c(F)cc(C#Cc4ccccc4)cc3Cl)C(=O)N1CCN(c1cccnc1)C2=O` (racemic) [Example 74, (9aRS)-7-[2-chloro-6-fluoro-4-(2-phenylethynyl)phenyl]-9a-methyl-2-(3-pyridyl)-4,9-dihydro-3H-pyrazino[1,2-c]pyrimidine-1,6,8-trione], for which the Emax is 120% and the EC50 came to 102 nM.

Regarding `CC12CC(=O)N(c3c(F)cc(C#Cc4ccccc4)cc3Cl)C(=O)N1CCN(c1ccncc1)C2=O` (racemic) [Example 75, (9aRS)-7-[2-chloro-6-fluoro-4-(2-phenylethynyl)phenyl]-9a-methyl-2-(4-pyridyl)-4,9-dihydro-3H-pyrazino[1,2-c]pyrimidine-1,6,8-trione], the Emax was determined as 128% and the EC50 was determined as 210 nM.

As for `CC12CC(=O)N(c3c(F)cc(C#Cc4ccccc4)cc3Cl)C(=O)N1CCN(c1ccccn1)C2=O` (racemic) [Example 76, (9aRS)-7-[2-chloro-6-fluoro-4-(2-phenylethynyl)phenyl]-9a-methyl-2-(2-pyridyl)-4,9-dihydro-3H-pyrazino[1,2-c]pyrimidine-1,6,8-trione], the Emax is 150% and the EC50 came to 128 nM.

Take `Cn1cc(N2CCN3C(=O)N(c4c(F)cc(C#Cc5ccccc5)cc4Cl)C(=O)CC3(C)C2=O)cn1` (racemic) [Example 77, (9aRS)-7-[2-chloro-6-fluoro-4-(2-phenylethynyl)phenyl]-9a-methyl-2-(1-methylpyrazol-4-yl)-4,9-dihydro-3H-pyrazino[1,2-c]pyrimidine-1,6,8-trione]: the Emax was found to be 111% and the half-maximal effective concentration (EC50) turned out to be 104 nM.

For the compound `Cc1cccc(CN2CCN3C(=O)N(c4c(F)cc(C#Cc5ccccc5)cc4F)C(=O)CC3(C)C2=O)c1` (racemic) [Example 83, (9aRS)-7-[2,6-difluoro-4-(2-phenylethynyl)phenyl]-9a-methyl-2-(m-tolylmethyl)-4,9-dihydro-3H-pyrazino[1,2-c]pyrimidine-1,6,8-trione], the Emax was determined as 79% and the half-maximal effective concentration (EC50) was 173 nM.

For `Cc1ccc(CN2CCN3C(=O)N(c4c(F)cc(C#Cc5ccccc5)cc4F)C(=O)CC3(C)C2=O)cc1` (racemic) [Example 84, (9aRS)-7-[2,6-difluoro-4-(2-phenylethynyl)phenyl]-9a-methyl-2-(p-tolylmethyl)-4,9-dihydro-3H-pyrazino[1,2-c]pyrimidine-1,6,8-trione], the Emax came out at 87% and the 50% effective concentration (EC50) was determined as 117 nM.

Take `Cc1ccccc1CN1CCN2C(=O)N(c3c(F)cc(C#Cc4ccccc4)cc3F)C(=O)CC2(C)C1=O` (racemic) [Example 85, (9aRS)-7-[2,6-difluoro-4-(2-phenylethynyl)phenyl]-9a-methyl-2-(o-tolylmethyl)-4,9-dihydro-3H-pyrazino[1,2-c]pyrimidine-1,6,8-trione]: the Emax worked out at 83% and the EC50 was determined as 205 nM.

For `Cc1cccc(C)c1CN1CCN2C(=O)N(c3c(F)cc(C#Cc4ccccc4)cc3F)C(=O)CC2(C)C1=O` (racemic) [Example 86, (9aRS)-7-[2,6-difluoro-4-(2-phenylethynyl)phenyl]-2-[(2,6-dimethylphenyl)methyl]-9a-methyl-4,9-dihydro-3H-pyrazino[1,2-c]pyrimidine-1,6,8-trione], the Emax was 118% and the 50% effective concentration (EC50) is 68 nM.

With `CC12CC(=O)N(c3c(F)cc(C#Cc4ccccc4)cc3F)C(=O)N1CCN(Cc1ccccc1Cl)C2=O` (racemic) [Example 87, (9aRS)-2-[(2-chlorophenyl)methyl]-7-[2,6-difluoro-4-(2-phenylethynyl)phenyl]-9a-methyl-4,9-dihydro-3H-pyrazino[1,2-c]pyrimidine-1,6,8-trione], the Emax worked out at 131% and the 50% effective concentration (EC50) came to 87 nM.

In the case of `CC12CC(=O)N(c3c(F)cc(C#Cc4ccccc4)cc3F)C(=O)N1CCN(Cc1cccc(Cl)c1)C2=O` (racemic) [Example 88, (9aRS)-2-[(3-chlorophenyl)methyl]-7-[2,6-difluoro-4-(2-phenylethynyl)phenyl]-9a-methyl-4,9-dihydro-3H-pyrazino[1,2-c]pyrimidine-1,6,8-trione], the Emax is 134% and the half-maximal effective concentration (EC50) was determined as 73 nM.

Turning to `CC12CC(=O)N(c3c(F)cc(C#Cc4ccccc4)cc3F)C(=O)N1CCN(Cc1ccccn1)C2=O` (racemic) [Example 92, (9aRS)-7-[2,6-difluoro-4-(2-phenylethynyl)phenyl]-9a-methyl-2-(2-pyridylmethyl)-4,9-dihydro-3H-pyrazino[1,2-c]pyrimidine-1,6,8-trione], the Emax was determined as 91% and the EC50 is 198 nM.

Regarding `CC12CC(=O)N(c3c(F)cc(C#Cc4ccccc4)cc3F)C(=O)N1CCN(Cc1cccnc1)C2=O` (racemic) [Example 93, (9aRS)-7-[2,6-difluoro-4-(2-phenylethynyl)phenyl]-9a-methyl-2-(3-pyridylmethyl)-4,9-dihydro-3H-pyrazino[1,2-c]pyrimidine-1,6,8-trione], the Emax is 90% and the concentration giving a half-maximal response (EC50) was found to be 217 nM.

As for `CC12CC(=O)N(c3c(F)cc(C#Cc4ccccc4)cc3F)C(=O)N1CCN(Cc1ccncc1)C2=O` (racemic) [Example 94, (9aRS)-7-[2,6-difluoro-4-(2-phenylethynyl)phenyl]-9a-methyl-2-(4-pyridylmethyl)-4,9-dihydro-3H-pyrazino[1,2-c]pyrimidine-1,6,8-trione], the Emax was determined as 84% and the EC50 is 127 nM.

Regarding `CC12CC(=O)N(c3c(F)cc(C#Cc4ccccc4)cc3F)C(=O)N1CCN(Cc1ccncn1)C2=O` (racemic) [Example 95, (9aRS)-7-[2,6-difluoro-4-(2-phenylethynyl)phenyl]-9a-methyl-2-(pyrimidin-4-ylmethyl)-4,9-dihydro-3H-pyrazino[1,2-c]pyrimidine-1,6,8-trione], the Emax was found to be 96% and the 50% effective concentration (EC50) came out at 142 nM.

For `Cn1cc(CN2CCN3C(=O)N(c4c(F)cc(C#Cc5ccccc5)cc4F)C(=O)CC3(C)C2=O)cn1` (racemic) [Example 96, (9aRS)-7-[2,6-difluoro-4-(2-phenylethynyl)phenyl]-9a-methyl-2-[(1-methylpyrazol-4-yl)methyl]-4,9-dihydro-3H-pyrazino[1,2-c]pyrimidine-1,6,8-trione], the Emax came to 151% and the EC50 amounted to 214 nM.

Turning to `COCC12CC(=O)N(c3c(F)cc(C#Cc4ccccc4)cc3F)C(=O)N1CCN(c1cccnc1)C2=O` (racemic) [Example 102, (9aRS)-7-[2,6-difluoro-4-(2-phenylethynyl)phenyl]-9a-(methoxymethyl)-2-(3-pyridyl)-4,9-dihydro-3H-pyrazino[1,2-c]pyrimidine-1,6,8-trione], the Emax was 136% and the EC50 was determined as 129 nM.

For the compound `COCC12CC(=O)N(c3c(F)cc(C#Cc4ccccc4)cc3F)C(=O)N1CCN(c1cnn(C)c1)C2=O` (racemic) [Example 104, (9aRS)-7-[2,6-difluoro-4-(2-phenylethynyl)phenyl]-9a-(methoxymethyl)-2-(1-methylpyrazol-4-yl)-4,9-dihydro-3H-pyrazino[1,2-c]pyrimidine-1,6,8-trione], the Emax came to 148% and the EC50 was determined as 273 nM.

For `CC12CC(=O)N(c3ccc(C#Cc4ccccc4)cc3F)C(=O)N1CCN(c1cccnc1)C2=O` (racemic) [Example 108, (9aRS)-7-[2-fluoro-4-(2-phenylethynyl)phenyl]-9a-methyl-2-(3-pyridyl)-4,9-dihydro-3H-pyrazino[1,2-c]pyrimidine-1,6,8-trione], the Emax came to 103% and the concentration for a half-maximal effect (EC50) worked out at 267 nM.

As to `C[C@@]12CC(=O)N(c3c(F)cc(C#Cc4ccccc4)cc3F)C(=O)N1CCN(c1ccccn1)C2=O` [Example 5, (9aS)-7-[2,6-difluoro-4-(2-phenylethynyl)phenyl]-9a-methyl-2-(2-pyridyl)-4,9-dihydro-3H-pyrazino[1,2-c]pyrimidine-1,6,8-trione], the Emax is 92% and the EC50 was determined as 46 nM.

Regarding `C[C@@]12CC(=O)N(c3c(F)cc(C#Cc4ccccc4)cc3F)C(=O)N1CCN(c1cccnc1)C2=O` [Example 7, (9aS)-7-[2,6-difluoro-4-(2-phenylethynyl)phenyl]-9a-methyl-2-(3-pyridyl)-4,9-dihydro-3H-pyrazino[1,2-c]pyrimidine-1,6,8-trione], the Emax amounted to 126% and the EC50 came to 73 nM.
